Here are results for 18 molecules from patent US8658646B2, “Pyrrolopyrazine kinase inhibitors” (Hoffmann-LaRoche Inc., priority 2011, dated 2014).

Structures are written as SMILES. Values joined by “and” are separate entries in the source; they are usually repeats but may differ in a detail not shown here. Equal entries are not always repeated.

Assay [1] concerns the target T1, JAK3: Recombinant human kinase domain (Homo sapiens, UniProt P52333).
T1 construct: JAK3: Recombinant human kinase domain from Millipore (Cat #14-629) or prepared; purchased Millipore 14-629
Description: Determination of IC50 of Janus Kinase (JAK) inhibition, radioactive end-point 33P-ATP assay, JAK3. The class given is biochemical. The conditions noted are these: ATP 1.5 uM, peptide 50 uM, 20 minutes, read-out: JAK3-INHIB-DR/v1~NO ADDITIVE~Enzyme_Conc = 100.
Description: Determination of IC50 of Janus Kinase (JAK) Inhibition:
Assay conditions used are described below: • Assay Buffer: JAK Kinase Buffer: 50 mM Hepes [pH 7.2], 10 mM MgCl2, 1 mM DTT, 1 mg/ml BSA. The assay was carried out in this buffer. • Assay Format The kinase activity of all three JAK kinases was measured using a radioactive, end-point assay and with trace amounts of ^33P-ATP. The assays were carried out in 96-well polypropylene plates. Experimental Method:
All concentrations were final in the reaction mixture and all incubations were carried at room temperature. […] Final concentration of DMSO in the reaction was 10%. • 2) Compounds were preincubated with enzyme (0.5 nM JAK3 (commercially available), 0.2 nM JAK3 (prepared), 1 nM JAK2, 5 nM JAK1) for 10 minutes. • 3) Reactions were initiated by the addition of a cocktail of the two substrates (ATP and peptide premixed in the JAK Kinase Buffer). […] JAK1 assay was carried out at an ATP concentration of 10 uM and a peptide concentration of 50 uM. • 4) The duration of the assay for JAK2 and JAK3 is 20 minutes. JAK1 assay was carried out for 40 minutes. With all three enzymes, reactions were terminated by the addition of 0.5M EDTA to a final concentration of 100 mM. • 5) 25 ul of terminated reactions were transferred to 150 ul of a 7.5% (v/v) slurry of streptavidin-coated sepharose beads in MgCl2- and CaCl2-free 1× Phosphate Buffered Saline containing 50 mM of EDTA in 96-well, 1.2 um MultiScreen-BV filter plates. • 6) After a 30-minute incubation, the beads were washed under vacuum with the following buffers: • a. 3 to 4 washes with 200 ul of 2M NaCl. • b. 3 to 4 washes with 200 ul of 2M NaCl plus 1% (v/v) phosphoric acid. • c. 1 wash with water. • 7) Washed plates were dried in a 60° C. oven for between 1 to 2 hours. • 8) 70 ul of Microscint 20 scintillation fluid was added to each well of filter plates and after at least 30 minutes of incubation, radioactive counts were measured in a Perkinelmer microplate scintillation counter.

Assay [2] addresses T2, recombinant human SYK360-635 (Homo sapiens, UniProt P43405).
T2 construct: made in house
The experiment in a line: Determination of IC50 of Spleen Tyrosine Kinase (SYK) inhibition, 33P ATP filtration assay. The class given is biochemical. To be noted: SYK aa 360-635 0.5 nM; ATP 20 μM, peptide 5 μM, 0.1% BSA; read-out: SYK_ENZYME_FILTRATION/v1, BSA.

T1 sequence (P52333 822-1111 limits assumed): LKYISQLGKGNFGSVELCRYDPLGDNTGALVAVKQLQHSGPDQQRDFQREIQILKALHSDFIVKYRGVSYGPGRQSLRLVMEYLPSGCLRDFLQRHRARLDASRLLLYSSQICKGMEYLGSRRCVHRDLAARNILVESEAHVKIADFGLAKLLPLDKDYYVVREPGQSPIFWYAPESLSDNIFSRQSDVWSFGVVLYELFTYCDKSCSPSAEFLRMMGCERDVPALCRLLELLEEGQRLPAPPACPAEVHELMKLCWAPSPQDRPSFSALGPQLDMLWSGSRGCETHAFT

On to `CC(C)NC(=O)c1c[nH]c2ncc(-c3nn(C)c4ccc(Oc5cccc(Cl)c5)cc34)nc12` [Example I-280, 2-[5-(3-Chloro-phenoxy)-1-methyl-1H-indazol-3-yl]-5H-pyrrolo[2,3-b]pyrazine-7-carboxylic acid isopropylamide], for which the IC50 in assay [1] was found to be 240 nM; in assay [2], 377 nM.

As for `CC(C)NC(=O)c1c[nH]c2ncc(-c3nn(C)c4ccc(OC(F)(F)F)cc34)nc12` [Example I-281, 2-(1-Methyl-5-trifluoromethoxy-1H-indazol-3-yl)-5H-pyrrolo[2,3-b]pyrazine-7-carboxylic acid isopropylamide], the results for the IC50 in assay [1] and in assay [2] were 60.9 nM and 12.5 nM, respectively.

Take `CC(C)NC(=O)c1c[nH]c2ncc(-c3nn(C)c4c3CCC4)nc12` [Example I-282, 2-(1-Methyl-1,4,5,6-tetrahydro-cyclopentapyrazol-3-yl)-5H-pyrrolo[2,3-b]pyrazine-7-carboxylic acid isopropylamide]: the IC50 in assay [1] is 12.7 nM; in assay [2] it was 31.9 nM.

Consider `CC(C)NC(=O)c1c[nH]c2ncc(-c3nn(C)c4ccc(OC(F)F)cc34)nc12` [Example I-283, 2-(5-Difluoromethoxy-1-methyl-1H-indazol-3-yl)-5H-pyrrolo[2,3-b]pyrazine-7-carboxylic acid isopropylamide], for which the IC50 in assay [1] was 14.3 nM; in assay [2], 4.5 nM.

With `Cn1nc(-c2cnc3[nH]cc(C(=O)NC(C)(C)CO)c3n2)c2cc(OC(F)F)ccc21` [Example I-285, 2-(5-Difluoromethoxy-1-methyl-1H-indazol-3-yl)-5H-pyrrolo[2,3-b]pyrazine-7-carboxylic acid (2-hydroxy-1,1-dimethyl-ethyl)-amide], the IC50 in assay [1] was 82.5 nM; in assay [2], 4.58 nM.

Regarding `Cn1nc(-c2cnc3[nH]cc(C(=O)NC4(CO)CCOCC4)c3n2)c2cc(OC(F)F)ccc21` [Example I-286, 2-(5-Difluoromethoxy-1-methyl-1H-indazol-3-yl)-5H-pyrrolo[2,3-b]pyrazine-7-carboxylic acid (4-hydroxymethyl-tetrahydro-pyran-4-yl)-amide], the IC50 is 748 nM in assay [1] and 83.7 nM in assay [2].

In the case of `CC(C)(C)NC(=O)c1c[nH]c2ncc(-c3nn(CCCN4CC(F)(F)C4)c4ccc(OC(F)F)cc34)nc12` [Example I-296, 2-{1-[3-(3,3-Difluoro-azetidin-1-yl)-propyl]-5-difluoromethoxy-1H-indazol-3-yl}-5H-pyrrolo[2,3-b]pyrazine-7-carboxylic acid tert-butylamide], the IC50 came to 78.7 nM in assay [1] and 13.9 nM in assay [2].

With `CC(C)NC(=O)c1c[nH]c2ncc(-c3nn(Cc4ccon4)c4cc(Cl)ccc34)nc12` [Example I-310, 2-(6-Chloro-1-isoxazol-3-ylmethyl-1H-indazol-3-yl)-5H-pyrrolo[2,3-b]pyrazine-7-carboxylic acid isopropylamide], the IC50 stood at 31.4 nM in assay [1] and 35.3 nM in assay [2].

As to `CC(C)NC(=O)c1c[nH]c2ncc(-c3nn(Cc4nccn4C)c4cc(Cl)ccc34)nc12` [Example I-311, 2-[6-Chloro-1-(1-methyl-1H-imidazol-2-ylmethyl)-1H-indazol-3-yl]-5H-pyrrolo[2,3-b]pyrazine-7-carboxylic acid isopropylamide], the IC50 in assay [1] worked out at 4.46 nM; in assay [2], 10.9 nM.

On to `Cc1cc(Cn2nc(-c3cnc4[nH]cc(C(=O)NC(C)C)c4n3)c3ccc(Cl)cc32)no1` [Example I-312, 2-[6-Chloro-1-(5-methyl-isoxazol-3-ylmethyl)-1H-indazol-3-yl]-5H-pyrrolo[2,3-b]pyrazine-7-carboxylic acid isopropylamide], for which the IC50 in assay [1] came out at 8.25 nM; in assay [2], 73.6 nM.

For the molecule `CN(C)CCn1nc(-c2cnc3[nH]cc(C(=O)NC(C)(C)C)c3n2)c2ccc(F)cc21` [Example I-313, 2-[1-(2-Dimethylamino-ethyl)-6-fluoro-1H-indazol-3-yl]-5H-pyrrolo[2,3-b]pyrazine-7-carboxylic acid tert-butylamide], the IC50 was 157 nM in assay [1] and 46 nM in assay [2].

For `CC(C)(C)NC(=O)c1c[nH]c2ncc(-c3ncn4cc(F)ccc34)nc12` [Example I-357, 2-(6-Fluoro-imidazo[1,5-a]pyridin-1-yl)-5H-pyrrolo[2,3-b]pyrazine-7-carboxylic acid tert-butylamide], the figures for the IC50 in assay [1] and in assay [2] were 5.3 nM and 14.8 nM, respectively.

Take `COc1ccc2c(-c3cnc4[nH]cc(C(=O)NC(C)(C)CO)c4n3)nn(C)c2c1` [Example I-365, 2-(6-Methoxy-1-methyl-1H-indazol-3-yl)-5H-pyrrolo[2,3-b]pyrazine-7-carboxylic acid (2-hydroxy-1,1-dimethyl-ethyl)-amide]: the IC50 in assay [1] came out at 58.3 nM; in assay [2], 3.32 nM.

Consider `COc1ccc2c(-c3cnc4[nH]cc(C(=O)NC(C)(C)C)c4n3)nn(C)c2c1` [Example I-366, 2-(6-Methoxy-1-methyl-1H-indazol-3-yl)-5H-pyrrolo[2,3-b]pyrazine-7-carboxylic acid tert-butylamide], for which the IC50 in assay [1] is 63.7 nM; in assay [2], < 1 nM (2×) and 1.6 nM.

Take `CCC(C)(C)NC(=O)c1c[nH]c2ncc(-c3nn(C)c4cc(F)ccc34)nc12` [Example I-375, 2-(6-Fluoro-1-methyl-1H-indazol-3-yl)-5H-pyrrolo[2,3-b]pyrazine-7-carboxylic acid (1,1-dimethyl-propyl)-amide]: the IC50 in assay [1] is 22.9 nM; in assay [2], 3.38 nM.

`Cn1nc(-c2cnc3[nH]cc(C(=O)NC(C)(C)C#N)c3n2)c2ccc(F)cc21` [Example I-377, 2-(6-Fluoro-1-methyl-1H-indazol-3-yl)-5H-pyrrolo[2,3-b]pyrazine-7-carboxylic acid (cyano-dimethyl-methyl)-amide]: the IC50 in assay [1] was 5.4 nM; in assay [2] it was 4.55 nM.

For the molecule `Cn1nc(-c2cnc3[nH]cc(C(=O)NC4(C)CC4)c3n2)c2ccc(F)cc21` [Example I-378, 2-(6-Fluoro-1-methyl-1H-indazol-3-yl)-5H-pyrrolo[2,3-b]pyrazine-7-carboxylic acid (1-methyl-cyclopropyl)-amide], the IC50 in assay [1] was 12.8 nM; in assay [2], 3.08 nM.

`CC(C)(C)NC(=O)c1c[nH]c2ncc(-c3cccc4[nH]ncc34)nc12` [Example I-399, 2-(1H-Indazol-4-yl)-5H-pyrrolo[2,3-b]pyrazine-7-carboxylic acid tert-butylamide]: the IC50 stood at 18.1 nM in assay [1] and 4.73 nM in assay [2].
